Measurements from ChEMBL document CHEMBL3352473, “Synthesis and evaluation of imidazole-4,5- and pyrazine-2,3-dicarboxamides targeting dengue and yellow fever virus” (Eur J Med Chem, 2014).

Assays:
[1] = Selectivity index, ratio of CC50 for green monkey Vero-B cells to EC50 for Yellow fever virus infected in green monkey Vero-B cells; format: toxicity, cell-based; settings: read-out: Ratio CC50/EC50
[2] = Selectivity index, ratio of CC50 for green monkey Vero-B cells to EC50 for Dengue virus infected in green monkey Vero-B cells; format: toxicity, cell-based; settings: read-out: Ratio CC50/EC50

Row | SMILES | selectivity ratio [1] | selectivity ratio [2]
1 | Cc1ccc(NC(=O)c2nc[nH]c2C(=O)Nc2ccccc2)c(-c2ccsc2)c1 | 13 | 1
2 | Cc1ccc(NC(=O)c2nc[nH]c2C(=O)Nc2ccc(F)cc2)c(-c2cc(C)n[nH]2)c1 | 34.5 | 48
3 | Cc1cc(-c2ccccc2NC(=O)c2nc[nH]c2C(=O)Nc2ccc(F)cc2)[nH]n1 | 67 | 3.6
4 | O=C(NCc1ccccc1-c1ccncc1)c1nc[nH]c1C(=O)Nc1ccc(F)cc1 | 31 | 26
5 | O=C(NCc1ccccc1-c1ccsc1)c1nc[nH]c1C(=O)Nc1ccc(F)cc1 | 13.2 | 1.95
6 | O=C(NCc1ccc(-c2cccnc2)cc1)c1nc[nH]c1C(=O)Nc1ccc(F)cc1 | 10 | 2.85
7 | O=C(NCc1ccc(-c2ccsc2)cc1)c1nc[nH]c1C(=O)Nc1ccc(F)cc1 | 4.13 | 0.6
8 | O=C(NCc1ccc(-c2ccncc2)cc1)c1nc[nH]c1C(=O)Nc1ccc(F)cc1 | 1 | 1
9 | Cc1ccc(NC(=O)c2nc[nH]c2C(=O)Nc2ccc(F)cc2)c(-c2ccsc2)c1 | 1 | 2.4
10 | Cc1ccc(NC(=O)c2nc[nH]c2C(=O)Nc2ccc(F)cc2)c(-c2ccco2)c1 | – | 1
11 | Cc1ccc(NC(=O)c2[nH]cnc2C(=O)Nc2ccc(C)cc2-c2ccsc2)cc1 | 1 | 24.5
12 | Cc1ccc(NC(=O)c2[nH]cnc2C(=O)Nc2ccc(C)cc2-c2ccco2)cc1 | – | 36.2
13 | Cc1ccc(NC(=O)c2nc[nH]c2C(=O)NCc2ccccc2)c(-c2ccco2)c1 | – | 1
14 | Cc1ccc(NC(=O)c2nc[nH]c2C(=O)NCCc2ccc(F)cc2)c(-c2ccco2)c1 | – | 30.9
15 | Cc1cnc(NC(=O)c2[nH]cnc2C(=O)Nc2ccccc2)c(-c2ccc(C)s2)c1 | 0.97 | 0.22
16 | O=C(NCc1ccc(-c2ccncc2)cc1)c1nccnc1C(=O)Nc1ccc(F)cc1 | 16 | > 125
17 | Cc1ccc(NC(=O)c2nccnc2C(=O)Nc2ccc(F)cc2)c(-c2cccnc2)c1 | 9 | > 125
18 | O=C(NCc1ccc(-c2cccnc2)cc1)c1nccnc1C(=O)Nc1ccc(F)cc1 | 13 | 38.5
19 | O=C(Nc1ccc(F)cc1)c1nccnc1C(=O)Nc1ccccc1-c1ccncc1 | 15 | 10.4
20 | O=C(Nc1ccc(F)cc1)c1nccnc1C(=O)Nc1ccccc1-c1cccnc1 | 2.5 | 5.2
21 | O=C(NCc1ccccc1-c1ccncc1)c1nccnc1C(=O)Nc1ccc(F)cc1 | – | 2.9
22 | Cc1ccc(NC(=O)c2nccnc2C(=O)Nc2ccc(F)cc2)c(-c2ccncc2)c1 | 2.6 | 1
23 | Cc1ccc(NC(=O)c2nccnc2C(=O)NCc2ccc(-c3ccncc3)cc2)cc1 | 3 | 4.5
24 | Cc1ccc(NC(=O)c2nccnc2C(=O)Nc2ccc(C)cc2-c2cccnc2)cc1 | 4.1 | 4.5
25 | Cc1ccc(NC(=O)c2nccnc2C(=O)NCc2ccc(-c3cccnc3)cc2)cc1 | 1.7 | 17.2
26 | Cc1ccc(NC(=O)c2nccnc2C(=O)Nc2ccccc2-c2ccncc2)cc1 | 10 | 26
27 | Cc1ccc(NC(=O)c2nccnc2C(=O)Nc2ccccc2-c2cccnc2)cc1 | 1 | 8.8
28 | Cc1ccc(NC(=O)c2nccnc2C(=O)NCc2ccccc2-c2ccncc2)cc1 | 1.7 | 2.04
29 | Cc1ccc(NC(=O)c2nccnc2C(=O)Nc2ccc(C)cc2-c2ccncc2)cc1 | 3.8 | 10
